{"source": "patent US20040024033A1", "about": "(priority 1998, published 2004)", "key": {"[1]": {"system": "human estrogen-dependent ZR-75-1 breast tumor", "experiment": "Antitumor effect against s.c. transplanted ZR-75-1 tumors", "assay_type": "in vivo, female BALB/c nude mice", "method": "Female or male BALB/c nu/nu (nude) mice are kept under sterile conditions (10 to 12 mice per Type III cage) with free access to food and water. Mice weigh between 20 and 25 grams at the time of tumor implantation. Tumors are established by subcutaneous injection of cells (minimum 2×10^6 cells in 100 μl PBS or medium) in carrier mice (4-8 mice per cell line). The resulting tumors are serially passaged for a minimum of three consecutive transplantations prior to start of treatment. Tumor fragments (approx. 25 mg) are implanted s.c. into the left flank of animals with a 13-gauge trocar needle while the mice are exposed to Forene (Abbott, Switzerland) anesthesia.\nTumor growth and body weights are monitored once or twice weekly. All treatments are administered intravenously (i.v.) and are initiated when a mean tumor volume of approximately 100 to 250 mm^3 is attained, depending upon the tumor type. Tumor volumes are determined using the formula […] (see Cancer Chemother. Pharmacol. 24:148-154, [1989]). Treatments with epothilone B vary the dose and the frequency of administration. Comparator agents are administered according to previously determined optimal treatment regimens. In addition to presenting changes in tumor volumes over the course of treatment, antitumor activity is expressed as T/C% (mean increase of tumor volumes of treated animals divided by the mean increase of tumor volumes of control animals multiplied by 100). Tumor regression (%) represents the smallest mean tumor volume compared to the mean tumor volume at the start of treatment, according to the formula Regression (%)=(1−Vend/Vstart)×100 (Vend=final mean tumor volume, Vstart=mean tumor volume at the start of treatment. Any animals in which the tumor has reached a size exceeding approximately 1.5 to 2.5 cm^3 are sacrificed. Details can be found below.\nTumor fragments of approximately 25 mg are implanted into the left flank of each female nude mouse (n=6 per group); a subcutaneous estrogen pellet is placed in the opposite flank. Treatments are started on day 19 after tumor transplantation. epothilone B is administered at 1, 2 or 4 mg/kg, i.v., either once per week (days 19, 26 and 33) or every second week (days 19 and 33). Data presented are from animals surviving to day 47, the last day of controls. Antitumor activity is expressed as T/C% (mean increase of tumor volumes of treated animals divided by the mean increase of tumor volumes of control animals multiplied by 100). Tumor regression (%) represents the final mean tumor volume compared to the mean tumor volume at the start of treatment. Changes (A) in tumor volume represent the tumor volume on the last treatment day minus the tumor volume on the first treatment day."}, "[2]": {"experiment": "Determination of the single i.v. dose MTD in normal mice", "assay_type": "in vivo, normal female BALB/c mice", "conditions": "for Body Weight Δ: mean ± SD", "method": "For the MTD determination, female BALB/c nude mice or BALB/c mice (obtained from Novartis Animal Farm, Sisseln, Switzerland) are treated once intravenously with epothilone B (n=3 per dose group). The dosage is increased (2, 4, 6, 8, 10 and 12 mg/kg) and the mice are observed for the presentation of overt toxic effects for 10 days after drug treatment.\nEpothilone B is given as a single i.v. bolus dose at 2, 4, 6, 8, 10 or 12 mg/kg. Survival and body weights of the mice are monitored daily. Changes (Δ) in body weights are determined comparing the last measured body weight to that before treatment."}, "[3]": {"conditions": "1 mg/kg, i.v. every 7 days, day 47"}, "[4]": {"conditions": "2 mg/kg, i.v. every 7 days, day 47"}, "[5]": {"conditions": "4 mg/kg, i.v. every 7 days, day 47"}, "[6]": {"conditions": "4 mg/kg, i.v. every 14 days, day 47"}, "[7]": {"conditions": "Experiment 1, 6 mg/kg single i.v. bolus"}, "[8]": {"conditions": "Experiment 1, 8 mg/kg single i.v. bolus"}, "[9]": {"conditions": "Experiment 1, 10 mg/kg single i.v. bolus"}, "[10]": {"conditions": "Experiment 1, 12 mg/kg single i.v. bolus"}, "[11]": {"conditions": "Experiment 2, 2 mg/kg single i.v. bolus"}, "[12]": {"conditions": "Experiment 2, 4 mg/kg single i.v. bolus"}, "[13]": {"conditions": "Experiment 2, 6 mg/kg single i.v. bolus"}, "[14]": {"conditions": "Experiment 2, 8 mg/kg single i.v. bolus"}}}
{"smiles": "C/C(=C\\c1csc(C)n1)[C@@H]1C[C@@H]2O[C@]2(C)CCC[C@H](C)[C@H](O)[C@@H](C)C(=O)C(C)(C)[C@@H](O)CC(=O)O1", "note": "[epothilone B]", "values": [{"measurement": "Regression", "setting": "[1]; [3]", "value": "none"}, {"measurement": "T/C (%)", "setting": "[1]; [3]", "value": 86, "unit": "%"}, {"measurement": "Δ Body Weight", "setting": "[1]; [3]", "value": 0.3, "unit": "g"}, {"measurement": "Regression", "setting": "[1]; [4]", "value": "none"}, {"measurement": "T/C (%)", "setting": "[1]; [4]", "value": 40, "unit": "%"}, {"measurement": "Δ Body Weight", "setting": "[1]; [4]", "value": -3.5, "unit": "g"}, {"measurement": "T/C (%)", "setting": "[1]; [5]", "value": 1, "unit": "%"}, {"measurement": "Δ Body Weight", "setting": "[1]; [5]", "value": -1.2, "unit": "g"}, {"measurement": "Regression", "setting": "[1]; 4 mg/kg, i.v. every 7 days, transient", "value": "−8", "unit": "%"}, {"measurement": "Regression", "setting": "[1]; [6]", "value": "none"}, {"measurement": "T/C (%)", "setting": "[1]; [6]", "value": 46, "unit": "%"}, {"measurement": "Δ Body Weight", "setting": "[1]; [6]", "value": -1.6, "unit": "g"}, {"measurement": "Mortalities", "setting": "[2]; [7]", "value": "1/3"}, {"measurement": "Body Weight Δ", "setting": "[2]; [7]", "value": "-6.1 ± 0.9", "unit": "g"}, {"measurement": "Mortalities", "setting": "[2]; [8]", "value": "3/3"}, {"measurement": "Body Weight Δ", "setting": "[2]; [8]", "value": "-5.1 ± 3.2", "unit": "g"}, {"measurement": "Mortalities", "setting": "[2]; [9]", "value": "3/3"}, {"measurement": "Body Weight Δ", "setting": "[2]; [9]", "value": "-5.6 ± 0.6", "unit": "g"}, {"measurement": "Mortalities", "setting": "[2]; [10]", "value": "3/3"}, {"measurement": "Body Weight Δ", "setting": "[2]; [10]", "value": "-5.4 ± 2.9", "unit": "g"}, {"measurement": "Mortalities", "setting": "[2]; [11]", "value": "0/3"}, {"measurement": "Body Weight Δ", "setting": "[2]; [11]", "value": "2.3 ± 0.6", "unit": "g"}, {"measurement": "Mortalities", "setting": "[2]; [12]", "value": "0/3"}, {"measurement": "Body Weight Δ", "setting": "[2]; [12]", "value": "1.3 ± 0.6", "unit": "g"}, {"measurement": "Mortalities", "setting": "[2]; [13]", "value": "2/3"}, {"measurement": "Body Weight Δ", "setting": "[2]; [13]", "value": "-5.3 ± 0.6", "unit": "g"}, {"measurement": "Mortalities", "setting": "[2]; [14]", "value": "3/3"}, {"measurement": "Body Weight Δ", "setting": "[2]; [14]", "value": "-5.0 ± 1.0", "unit": "g"}]}
